According to patent publication US20230151025A1, “SUBSTITUTED THIAZOLOPYRIDINES, SALTS THEREOF AND THEIR USE AS HERBICIDALLY ACTIVE SUBSTANCES” (Bayer Aktiengesellschaft, priority 2020, published 2023):

test system: Alopecurus myosuroides (ALOMY); experiment: Herbicidal pre-emergence action (A), 1280 g/ha; format: in vivo; conditions: visual grading after ca. 3 weeks vs untreated controls, 100% = plants have died off, 0% = as control plants
Source text: (§1) ABUTH: Abutilon theophrasti AGSTE: Agrostis tenuis ALOMY: Alopecurus myosuroides AMARE Amaranthus retroflexus DIGSA: Digitaria sanguinalis ECHCG: Echinochloa crus-galli KCHSC: Kochia scoparia LOLRI: Lolium rigidum MATIN: Matricaria inodora POAAN: Poa annua POLCO: Polygonum convolvulus SETVI: Setaria viridis STEME: Stellaria media VERPE: Veronica persica VIOTR: Viola tricolor
(§2) Seeds of mono- and dicotyledonous weed plants were sown in plastic pots (double sowings with one species of mono- and one species of dicotyledonous weed plants per pot), in sandy loam, and covered with soil. The compounds according to the invention, formulated in the form of wettable powders (WP) or as emulsifiable concentrates (EC), were applied to the surface of the covering soil as aqueous suspension or emulsion, with the addition of 0.5% of an additive, at an application rate of 600 l of water per hectare (converted). Following treatment, the pots were placed in a greenhouse and kept under optimum growth conditions for the test plants. The visual grading of the damage to the test plants was carried out after ca. 3 weeks in comparison to untreated controls (herbicidal effect in percent (%): 100% effect=plants have died off, 0% effect=as control plants).
(§3) Tables A1 to A12, below, show the effects of selected compounds of the general formula (I) according to table 1 on various harmful plants and an application rate corresponding to 1280 g/ha obtained by the experimental procedure mentioned above.

SMILES	ALOMY, herbicidal effect in percent (%)
Cc1ncccc1-c1nc2ncsc2cc1Br [Example I-129]	90

test system: Amaranthus retroflexus (AMARE); experiment: Herbicidal pre-emergence action (A), 1280 g/ha; format: in vivo; conditions: visual grading after ca. 3 weeks vs untreated controls
Source text: as §1, §2, §3

SMILES	herbicidal effect AMARE [%]
CSc1nc2nc(-c3ccccc3C)c(C)cc2s1 [Example I-043]	90
CCc1cc2sc([S+](C)[O-])nc2nc1-c1ccccc1 (stereo not shown) [Example I-050]	90
CCc1cc2sc(S(C)(=O)=O)nc2nc1-c1ccccc1C [Example I-061]	90
Cc1ncccc1-c1nc2ncsc2cc1Br [Example I-129]	90
NC(=O)c1nc2nc(-c3ccccc3F)c(Br)cc2s1 [Example I-154, 6-bromo-5-(2-fluorophenyl)thiazolo[4,5-b]pyridine-2-carboxamide]	90
Cc1cc2sc(S)nc2nc1C1=CCCCC1 [Example I-174]	100
Cc1cc(-c2nc3ncsc3cc2C)c(C)s1 [Example I-197]	90
Cc1cc2scnc2nc1-c1scnc1C [Example I-203]	90

test system: Digitaria sanguinalis (DIGSA); experiment: Herbicidal pre-emergence action (A), 1280 g/ha; format: in vivo; conditions: visual grading after ca. 3 weeks vs untreated controls, 100% = plants have died off, 0% = as control plants
Source text: as §1, §2, §3

SMILES	DIGSA, herbicidal effect in percent (%)
CSc1nc2nc(-c3ccccc3C)c(C)cc2s1 [Example I-043]	90

test system: Echinochloa crus-galli (ECHCG); experiment: Herbicidal pre-emergence action (A), 1280 g/ha; format: in vivo; conditions: visual grading after ca. 3 weeks vs untreated controls, 100% = plants have died off, 0% = as control plants
Source text: as §1, §2, §3

SMILES	ECHCG, herbicidal effect in percent (%)
CCc1cc2sc([S+](C)[O-])nc2nc1-c1ccccc1 (stereo not shown) [Example I-050]	100
Cc1cc2scnc2nc1-c1scnc1C [Example I-203]	100

test system: Kochia scoparia (KCHSC; Bassia scoparia); experiment: Herbicidal pre-emergence action (A), 1280 g/ha; format: in vivo; conditions: visual grading after ca. 3 weeks vs untreated controls
Source text: as §1, §2, §3

SMILES	herbicidal effect KCHSC [%]
CSc1nc2nc(-c3ccccc3C)c(C)cc2s1 [Example I-043]	90
CCc1cc2sc([S+](C)[O-])nc2nc1-c1ccccc1 (stereo not shown) [Example I-050]	90
Cc1ncccc1-c1nc2ncsc2cc1Br [Example I-129]	90
Cc1cc(-c2nc3ncsc3cc2C)c(C)s1 [Example I-197]	90

test system: Lolium rigidum (LOLRI); experiment: Herbicidal pre-emergence action (A), 1280 g/ha; format: in vivo; conditions: visual grading after ca. 3 weeks vs untreated controls, 100% = plants have died off, 0% = as control plants
Source text: as §1, §2, §3

SMILES	LOLRI, herbicidal effect in percent (%)
CCc1cc2sc([S+](C)[O-])nc2nc1-c1ccccc1 (stereo not shown) [Example I-050]	90
Cc1ncccc1-c1nc2ncsc2cc1Br [Example I-129]	90

test system: Matricaria inodora (MATIN); experiment: Herbicidal pre-emergence action (A), 1280 g/ha; format: in vivo; conditions: visual grading after ca. 3 weeks vs untreated controls
Source text: as §1, §2, §3

SMILES	herbicidal effect MATIN [%]
CCc1cc2sc([S+](C)[O-])nc2nc1-c1ccccc1 (stereo not shown) [Example I-050]	90

test system: Poa annua (POAAN); experiment: Herbicidal pre-emergence action (A), 1280 g/ha; format: in vivo; conditions: visual grading after ca. 3 weeks vs untreated controls, 100% = plants have died off, 0% = as control plants
Source text: as §1, §2, §3

SMILES	POAAN, herbicidal effect in percent (%)
CCc1cc2sc([S+](C)[O-])nc2nc1-c1ccccc1 (stereo not shown) [Example I-050]	100
Cc1ncccc1-c1nc2ncsc2cc1Br [Example I-129]	100
NC(=O)c1nc2nc(-c3ccccc3F)c(Br)cc2s1 [Example I-154, 6-bromo-5-(2-fluorophenyl)thiazolo[4,5-b]pyridine-2-carboxamide]	90
Cc1cc2sc(S)nc2nc1C1=CCCCC1 [Example I-174]	100
Cc1cc(-c2nc3ncsc3cc2C)c(C)s1 [Example I-197]	100

test system: Setaria viridis (SETVI); experiment: Herbicidal pre-emergence action (A), 1280 g/ha; format: in vivo; conditions: visual grading after ca. 3 weeks vs untreated controls
Source text: as §1, §2, §3

SMILES	herbicidal effect SETVI [%]
CSc1nc2nc(-c3ccccc3C)c(C)cc2s1 [Example I-043]	90
Cc1ncccc1-c1nc2ncsc2cc1Br [Example I-129]	100
Cc1cc(-c2nc3ncsc3cc2C)c(C)s1 [Example I-197]	100
Cc1cc2scnc2nc1-c1scnc1C [Example I-203]	100

test system: Stellaria media (STEME); experiment: Herbicidal pre-emergence action (A), 1280 g/ha; format: in vivo; conditions: visual grading after ca. 3 weeks vs untreated controls
Source text: as §1, §2, §3

SMILES	herbicidal effect STEME [%]
CCc1cc2sc([S+](C)[O-])nc2nc1-c1ccccc1 (stereo not shown) [Example I-050]	90
CCc1cc2sc(S(C)(=O)=O)nc2nc1-c1ccccc1C [Example I-061]	90
NC(=O)c1nc2nc(-c3ccccc3F)c(Br)cc2s1 [Example I-154, 6-bromo-5-(2-fluorophenyl)thiazolo[4,5-b]pyridine-2-carboxamide]	90
Cc1cc2scnc2nc1-c1scnc1C [Example I-203]	90

test system: Veronica persica (VERPE); experiment: Herbicidal pre-emergence action (A), 1280 g/ha; format: in vivo; conditions: visual grading after ca. 3 weeks vs untreated controls
Source text: as §1, §2, §3

SMILES	herbicidal effect VERPE [%]
CSc1nc2nc(-c3ccccc3C)c(C)cc2s1 [Example I-043]	100
CCc1cc2sc(S(C)(=O)=O)nc2nc1-c1ccccc1C [Example I-061]	90

test system: Amaranthus retroflexus (AMARE); experiment: Herbicidal post-emergence action (B), 1280 g/ha; format: in vivo; conditions: rated visually after about 3 weeks vs untreated controls
Source text: as §1
(§4) Seeds of mono- and dicotyledonous weed plants were placed in plastic pots in sandy loam soil (doubly sown with in each case one species of mono- or dicotyledonous weed plants per pot), covered with soil and cultivated in a greenhouse under controlled growth conditions. 2 to 3 weeks after sowing, the test plants were treated at the one-leaf stage. The compounds of the invention, formulated in the form of wettable powders (WP) or as emulsion concentrates (EC), were applied onto the green parts of the plants as aqueous suspension or emulsion with addition of 0.5% additive at a water application rate of 600 liters per hectare (converted). After the test plants had been kept in the greenhouse under optimum growth conditions for about 3 weeks, the activity of the preparations was rated visually in comparison to untreated controls. For example, 100% activity=the plants have died, 0% activity=like control plants.
(§5) Tables B1 to B12, below, show the effects of selected compounds of the general formula (I) according to table 1 on various harmful plants and an application rate corresponding to 1280 g/ha obtained by the experimental procedure mentioned above.

SMILES	herbicidal activity AMARE [%]
CSc1nc2nc(-c3ccccc3C)c(C)cc2s1 [Example I-043]	100
CCc1cc2sc([S+](C)[O-])nc2nc1-c1ccccc1 (stereo not shown) [Example I-050]	90
NC(=O)c1nc2nc(-c3ccccc3F)c(Br)cc2s1 [Example I-154, 6-bromo-5-(2-fluorophenyl)thiazolo[4,5-b]pyridine-2-carboxamide]	90
Cc1cc2scnc2nc1-c1scnc1C [Example I-203]	90

test system: Kochia scoparia (KCHSC; Bassia scoparia); experiment: Herbicidal post-emergence action (B), 1280 g/ha; format: in vivo; conditions: not given
Source text: as §1, §4, §5

SMILES	herbicidal effect KCHSC [%]
CSc1nc2nc(-c3ccccc3C)c(C)cc2s1 [Example I-043]	90
CCc1cc2sc(S(C)(=O)=O)nc2nc1-c1ccccc1C [Example I-061]	90
NC(=O)c1nc2nc(-c3ccccc3F)c(Br)cc2s1 [Example I-154, 6-bromo-5-(2-fluorophenyl)thiazolo[4,5-b]pyridine-2-carboxamide]	90

test system: Stellaria media (STEME); experiment: Herbicidal post-emergence action (B), 1280 g/ha; format: in vivo; conditions: not given
Source text: as §1, §4, §5

SMILES	herbicidal effect STEME [%]
Cc1cc2scnc2nc1-c1scnc1C [Example I-203]	90

test system: Veronica persica (VERPE); experiment: Herbicidal post-emergence action (B), 1280 g/ha; format: in vivo; conditions: not given
Source text: as §1, §4, §5

SMILES	herbicidal effect VERPE [%]
CSc1nc2nc(-c3ccccc3C)c(C)cc2s1 [Example I-043]	90
CCc1cc2sc([S+](C)[O-])nc2nc1-c1ccccc1 (stereo not shown) [Example I-050]	90
NC(=O)c1nc2nc(-c3ccccc3F)c(Br)cc2s1 [Example I-154, 6-bromo-5-(2-fluorophenyl)thiazolo[4,5-b]pyridine-2-carboxamide]	100
Cc1cc(-c2nc3ncsc3cc2C)c(C)s1 [Example I-197]	90
